The record followed here is patent US10100042B2, “[5,6]—fused bicyclic antidiabetic compounds” (Merck Sharp & Dohme Corp., priority 2014, dated 2018).

What all share (assay type): cell-based
The target in test [1] is T1, human GPR40 (Homo sapiens (Human), UniProt O14842). The experiment in a line: FLIPR assay, agonist-induced calcium mobilization in GPR40/CHO NFAT BLA cells. The method, then: (§1) Human and mouse GPR40 stable cell-lines were generated in CHO cells stably expressing NFAT BLA (Beta-lactamase). A human GPR40 stable cell-line was generated in HEK cells stably expressing the aequorin expressing reporter. The expression plasmids were transfected using lipofectamine (Life Technologies) following manufacturer's instructions. Stable cell-lines were generated following drug selection.
T1 sequence (O14842 whole entry): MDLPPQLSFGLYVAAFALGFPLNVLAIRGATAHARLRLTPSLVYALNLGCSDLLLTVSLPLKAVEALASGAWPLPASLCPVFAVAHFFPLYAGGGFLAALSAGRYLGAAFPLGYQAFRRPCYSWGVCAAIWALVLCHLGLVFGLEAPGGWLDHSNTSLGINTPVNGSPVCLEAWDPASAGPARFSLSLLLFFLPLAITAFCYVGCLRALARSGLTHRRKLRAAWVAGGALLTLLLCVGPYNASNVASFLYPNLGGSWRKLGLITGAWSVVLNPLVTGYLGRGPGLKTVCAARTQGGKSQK
FLIPR (Fluorimetric Imaging Plate Reader, Molecular Devices) assays were performed to measure agonist-induced calcium mobilization of the stable clones. For the FLIPR assay, one day before assay, GPR40/CHO NFAT BLA cells were seeded into black-wall-clear-bottom 384-well plates (Costar) at 1.4×10e4 cells/20 μL medium/well. The cells were incubated with 20 μl/well of the assay buffer (HBSS, 0.1% BSA, 20 mM HEPES, 2.5 mM probenecid, pH 7.4) containing 8 μM fluo-4, AM, 0.08% pluronic acid at room temperature for 100 minutes. Fluorescence output was measured using FLIPR. Compounds were dissolved in DMSO and diluted to desired concentrations with assay buffer. 13.3 μL/well of compound solution was added.

Test [2] deals with T1, human GPR40. The experiment in a line: Inositol Phosphate Turnover (IP1) Assay 1 in HEK cells stably expressing human GPR40. Particulars: compound transferred via pocket tip. Here is the method:
as §1
(§2) The assay is performed in 384-well format. HEK cells stably expressing human GPR40 are plated at 15,000 cells per well in growth medium (DMEM/10% fetal calf serum). Cell plates are then incubated 16 hours at 37 degrees in a 5% CO2 incubator.
Measurement of Inositol Phosphate Turnover (IP1) is performed using the CisBio IP-One kit (Part number 62IPAPEB). After the 16 hour incubation, the cells are washed with HEPES buffer and 10 ul of stimulation buffer (prepared as described in the kit) is added to each well. In a separate plate, compounds are diluted in DMSO (400-fold over the final concentration in the assay well) and 25 nl is transferred via pocket tip to the appropriate well in the assay cell plate. The plates are then incubated for 60 minutes at 37 degrees. 10 ul of detection buffer (also prepared as described in the IP-One kit) is added to each well and the plates are incubated for 60 minutes in the dark. The plates are then read in a Perkin Elmer EnVision or equivalent reader able to measure FRET. Fluorescent ratio of emission at 665 and 620 nm is then converted to IP1 concentration by back calculating from an IP1 standard curve prepared at the time of the assay.

The target in test [3] is T1, human GPR40. The experiment in a line: Inositol Phosphate Turnover (IP1) Assay 2 in HEK cells stably expressing human GPR40. Particulars: compound acoustically transferred. Here is the method:
as §1, §2
Measurement of Inositol Phosphate Turnover (IP1) is performed using the CisBio IP-One kit (Part number 62IPAPEB). After the 16 hour incubation, the cells are washed with HEPES buffer and 10 ul of stimulation buffer (prepared as described in the kit) is added to each well. In a separate plate, compounds are diluted in DMSO (400-fold over the final concentration in the assay well) and 25 nl is acoustically transferred to the appropriate well in the assay cell plate. The plates are then incubated for 60 minutes at 37 degrees. […] The plates are then read in a Perkin Elmer EnVision or equivalent reader able to measure FRET. […]

A word on the EC50: it is the midpoint of the concentration-response curve.

Turning to `Cc1cccc(C)c1-c1cccc(C2Cc3cc(CCC(=O)O)ccc3O2)c1` (racemic) [Example 18], the EC50 in test [1] was determined as 1220 nM. Same read-out and setting: under `COc1cc(C)c(-c2cccc(C3Cc4cc(CCC(=O)O)ccc4O3)c2)c(C)c1` (centres unmarked) [Example 15] stands 1490 nM. For the compound `Cc1cc(C)c(-c2cccc(-c3cc4cc(CCC(=O)O)ccc4o3)c2)c(F)c1` [Example 12], the EC50 is more than 10 µM in test [2] and 716 nM in test [1].

Take `Cc1cccc(C)c1-c1cccc(-c2cc3cc(CCC(=O)O)ccc3o2)c1` [Example 7, 3-(2-(2′,6′-dimethyl-[1,1′-biphenyl]-3-yl)benzofuran-5-yl)propanoic acid]: the values for the EC50 in test [2] and in test [1] were 3.22 µM and 203 nM, respectively. For the compound `COc1cc(-c2ccc(CC3Cc4ccc([C@H](C5CC5)[C@H](C)C(=O)O)cc4O3)c(F)c2)ccn1` (single isomer, unassigned) [Example 5], in test [3], the response was half-maximal at 35 nM (EC50). Take `O=C(O)CCc1ccc2oc(-c3cccc(-c4c(Cl)cccc4Cl)c3)cc2c1` [Example 14]: the EC50 in test [2] is more than 10 µM; in test [1], 726 nM. Consider `COc1cc(C)c(-c2cccc(-c3cc4cc(CCC(=O)O)ccc4o3)c2)c(C)c1` [Example 10], for which, in test [1], the concentration for a half-maximal effect (EC50) is 540 nM. As to `Cc1cc(F)cc(C)c1-c1cccc(-c2cc3cc(CCC(=O)O)ccc3o2)c1` [Example 13], the figures for the EC50 in test [2] and in test [1] were 6.21 µM and 306 nM, respectively. In the case of `O=C(O)CCc1ccc2oc(-c3ccc(C(F)(F)F)cc3)cc2c1` [Example 8], the EC50 in test [1] worked out at 20900 nM. In test [2], `COc1ccc(F)c(-c2ccc(-c3cc4ccc([C@@H](CC(=O)O)C5CC5)cc4o3)nc2)c1` [Example 2] registered an EC50 of 0.215 µM. For `COc1cc(C)c(-c2cccc(C3Cc4cc(CCC(=O)O)ccc4O3)c2)c(C)c1` (single isomer, unassigned) [Example 17], the EC50 in test [2] came to 3.94 µM; in test [1] it was 4320 nM.

Regarding `COc1cc(C)c(-c2cccc(C3Cc4cc(CCC(=O)O)ccc4O3)c2)c(C)c1` (single isomer, unassigned) [Example 16], the 50% effective concentration (EC50) in test [2] turned out to be 5.87 µM; in test [1], 624 nM. Consider `COc1ccc(F)c(-c2ccc(C3Cc4ccc([C@@H](CC(=O)O)C5CC5)cc4O3)nc2)c1` (some centres unmarked) [Example 4], for which the EC50 in test [2] was 0.311 µM. Same read-out and setting: to `COc1ccc(F)c(-c2ccc(-c3cc4ccc([C@H](C5CC5)[C@H](C)C(=O)O)cc4o3)cc2)c1` [Example 1, (2S,3R)-3-cyclopropyl-3-(2-(2′-fluoro-5′-methoxy-[1,1′-biphenyl]-4-yl)benzofuran-6-yl)-2-methylpropanoic acid] belongs 0.066 µM.

With `COc1cc(-c2ccc(CC3Cc4ccc([C@H](C5CC5)[C@H](C)C(=O)O)cc4O3)c(F)c2)ccn1` (single isomer, unassigned) [Example 6], a half-maximal response in test [3] (EC50) required 37 nM.

In the case of `COc1ccc(F)c(-c2ccc(C3Cc4ccc([C@H](C5CC5)[C@H](C)C(=O)O)cc4O3)cc2)c1` (stereo partly drawn) [Example 3, (2S,3R)-3-cyclopropyl-3-(2-(2′-fluoro-5′-methoxy-[1,1′-biphenyl]-4-yl)-2,3-dihydrobenzofuran-6-yl)-2-methylpropanoic acid], it took 0.105 µM to reach a half-maximal effect in test [2] (EC50).

As for `COc1cc(C)c(-c2cccc(-c3cc4cc(CCC(=O)O)ccc4o3)c2)cc1F` [Example 9], the values for the EC50 in test [2] and in test [1] were 3.69 µM and 815 nM, respectively.

As to `COc1c(F)cc(-c2cccc(-c3cc4cc(CCC(=O)O)ccc4o3)c2)c(Cl)c1F` [Example 11], the EC50 in test [2] stood at 4.58 µM; in test [1] it was 1190 nM.
